Patent US12686704B2, “Procoagulant peptides and use thereof” (RAMBAM MED-TECH LTD., priority 2021, dated 2026)

What was measured:
[1] = system: ICR mice; test: Wound healing after full thickness skin incision in ICR mice; assay type: in vivo, mouse; conditions: for number of capillaries (vessels) in wound skin tissue: H&E staining at end of experiment, FIGS. 4D-4E; for wound healing (wound size): S.C. opposite to the wound on alternate days for one week, FIGS. 4A-4B
Description: FIGS. 4A-4E include images, micrographs, and graphs showing that that modified heparanase procoagulant peptides of the invention enhance wound healing. (4A) Full thickness incision of 10 mm was made in the back skin of ICR (normal, no genetic background) mice. On alternate days, for one week after surgery, peptide 16 or peptide 16AC was injected subcutaneously (S.C.) opposite to the wound at the indicated dose. Control group was injected the vehicle (PBS). […] Similar results were observed when the peptides were topically applied as a cream preparation (4C). n—number of mice. Mann-Whitney U test was used. Results represent mean±SD, **p<0.001, ***p<0.0001. (4D) At the end of the experiment the mice were sacrificed and the skin tissue from the wound site excised, and histologically analyzed using hematoxylin and eosin (H&E) staining. Representative images are shown. […] The number of capillaries presented reflects the median and range of five different fields. Mann-Whitney U test was used. Results represent mean±SD, *p<0.01, **p<0.001.
Full thickness incision of 10 mm was made in the back skin of ICR (normal, no genetic background) mice. On alternate days, for one week after surgery, peptide 16 was injected sub-cutaneous (S.C.) opposite to the wound at the indicated dose. Control group was injected the vehicle (PBS). […] Similar results were obtained when the peptides were applied topically in a cream preparation (FIG. 4C). At the end of the experiment the mice were sacrificed and the skin tissue from the wound site was analyzed using H&E staining.

[2] = molecular target: lipidated TF, factor VIIa, factor X (Homo sapiens, UniProt P13726); test: Factor X activation assay of purified proteins (chromogenic substrate); assay type: biochemical; conditions: peptides at 5 μg/ml and 10 μg/ml; compared to control; FIG. 1A
Chain of lipidated TF, factor VIIa, factor X (P13726 33-295): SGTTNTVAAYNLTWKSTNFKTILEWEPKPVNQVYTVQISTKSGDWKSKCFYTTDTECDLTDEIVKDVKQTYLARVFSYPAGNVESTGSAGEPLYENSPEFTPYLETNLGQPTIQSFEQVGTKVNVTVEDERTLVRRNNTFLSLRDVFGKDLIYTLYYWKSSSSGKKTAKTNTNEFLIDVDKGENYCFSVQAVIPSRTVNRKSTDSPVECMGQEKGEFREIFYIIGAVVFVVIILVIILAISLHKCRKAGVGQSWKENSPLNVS
Chain of lipidated TF, factor VIIa, factor X (P08709 61-212 partner limits assumed): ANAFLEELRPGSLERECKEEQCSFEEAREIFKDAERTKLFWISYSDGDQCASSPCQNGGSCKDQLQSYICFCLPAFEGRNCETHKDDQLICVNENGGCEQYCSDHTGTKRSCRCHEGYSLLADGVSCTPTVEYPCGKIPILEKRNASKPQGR
Chain of lipidated TF, factor VIIa, factor X (P08709 213-466 partner limits assumed): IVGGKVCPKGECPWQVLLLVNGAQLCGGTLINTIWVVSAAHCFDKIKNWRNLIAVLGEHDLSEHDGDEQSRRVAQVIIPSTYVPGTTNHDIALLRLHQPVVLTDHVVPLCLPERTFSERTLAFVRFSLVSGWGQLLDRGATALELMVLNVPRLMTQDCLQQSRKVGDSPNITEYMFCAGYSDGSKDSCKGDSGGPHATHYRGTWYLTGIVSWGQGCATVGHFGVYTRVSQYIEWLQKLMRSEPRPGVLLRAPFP
Description: FIGS. 1A-1C include vertical bar graphs and thromboelastography (TEG) curves, showing that peptide 16 and peptide 16AC increase coagulation. Peptide 16 and 16AC were studied in an assay of purified proteins that included lipidated TF (4 nM), factor VIIa (40 nM), factor X (1.4 μM) and assay buffer. Factor X activated form (Xa) level was studied using a chromogenic substrate (1 mM). […] Bovine factor Xa diluted in the assay buffer was used to generate a standard curve. Without addition of TF (two right columns), no factor Xa was generated. […] (1B) A citrated pooled normal human blood sample (n=3) was left for 4 hours at room temperature in order to expose TF in bloods cells. Following this period, the peptides 16 and 16AC were added (5 μg/ml) along with calcium. […] Representative TEG curves are shown. (1C) The study presented in FIG. 1B was repeated 3 times with different pooled plasma. […] Peptide 16 (non-modified); peptide 16 comprising a C-terminal amid group (16A); peptide 16 comprising an N-terminal acetyl group (16C); and peptide 16 comprising a C-terminal amid group and an N-terminal acetyl group (16AC). In 1B: for control—SP min=11.2; R min=12.8; K min=3.8, Angle deg=52.0; and MA mm=47.9, for Peptide 16—SP min=5.2; R min=6.4; K min=2.8, Angle deg=63.3; and MA mm=50.4, and for Peptide 16AC—SP min=4.7; R min=5.6; K min=2.5, Angle deg=63.1; and MA mm=53.8.
Peptides 16, 16C, 16A and 16AC were studied in an assay of purified proteins that included lipidated TF (0.004 μM), factor VIIa (0.04 μM), factor X (1.4 μM) and assay buffer. Factor X activated form (Xa) level was studied using a chromogenic substrate (1 mM). […] Bovine factor Xa diluted in the assay buffer was used to generate a standard curve. Without addition of TF (two right columns), no factor Xa was generated.

[3] = system: Hemophilic mice (VIII-KO mice); test: Mouse-tail bleeding time model in hemophilic mice; assay type: in vivo; conditions: for bleeding time: 150, 225, 300, 375 μg/kg sub-cutis at the flank or topically on the tail, dose dependent, vs PBS control
Description: FIGS. 3A-3D include vertical bar graphs showing that modified heparanase procoagulant peptides of the invention decrease bleeding in hemophilic mice. Hemophilic mice (VIII-KO mice; C57BL/6 background, strain name B6;129S4-F8tm1Kaz/J) were studied. (3A) Peptides 16 or 16AC were injected subcutaneously at the flank in doses 150, 225, 300, 375 μg/kg. A mouse-tail bleeding time model was performed. The peptides were dissolved in phosphate-buffered saline (PBS). Control (0) group was injected with the vehicle phosphate buffered saline (PBS). (3D) is identical to (3A) with the exception that peptide 16 C […] and peptide 16A […] were also administered in the disclosed doses. In a similar study, the peptides were topically applied on the tail immediately following the incision of the tail at a rate of a drop every 5 seconds (3B). […] Mann-Whitney U test was used. Results represent mean±SD. *p<0.05.
Hemophilic mice (VIII-KO mice; C57BL/6 background, strain name B6;129S4-F8tm1Kaz/J) were studied. Peptides 16 or 16AC were injected sub-cutis at the flank in doses 150, 225, 300, 375 μg/kg. A mouse-tail bleeding time model was performed. The peptides were dissolved in phosphate-buffered saline (PBS). Control (0) group was injected with the vehicle phosphate buffered saline (PBS) (FIGS. 3A and 3D). In a similar study, the peptides were topically applied on the tail immediately following the incision of the tail at a rate of a drop every 5 seconds (FIG. 3B).

Substance	number of capillaries (vessels) in wound skin tissue [1]	wound healing (wound size) [1]	activation of factor X (factor Xa level) [2]	bleeding time [3]	number of capillaries (vessels) in wound skin tissue ([1]; listed as peptide 16AC)	bleeding time reduction, comparison between peptides ([3]; subcutaneous 150-375 μg/kg, FIG. 3D)
GSKRRKLRVYLHCT [Peptide 16, peptide comprising the procoagulant domain of heparanase, non-modified]	significant increase of capillaries	significantly enhanced wound healing	significantly increased activation of factor X compared to control	significant decrease in bleeding time		
acetyl-GSKRRKLRVYLHCT-amid (Ac-GSKRRKLRVYLHCT-NH2) [Peptide 16AC, peptide 16 comprising a C-terminal amid group and an N-terminal acetyl group]	significantly better effect	significantly better effect on wound size	significantly increased activation of factor X compared to control	significant decrease in bleeding time	significant increase of capillaries	improved bleeding reduction
